Consider 1 compound from US10245255B2, “Compositions and methods for the treatment of obesity and related disorders” (THE REGENTS OF THE UNIVERSITY OF MICHIGAN, priority 2011, dated 2019).

This test concerns RAW264.7 cells. In words: RAW264.7 cells stimulated with LPS or poly I:C: phosphorylation (immunoblot). Type of test: cell-based. The settings on record: for LPS or poly I:C-stimulated phosphorylation of IRF3: LPS 0.5 μg/ml or poly I:C 50 μg/ml; for phosphorylation of TBK1 on serine 172: LPS or poly I:C stimulated. As to the method:
3T3-L1 fibroblasts (American Type Culture Collection, Manassas, Va.) were cultured and differentiated using standard methods known in the art. […] 3T3-L1 adipocytes were serum starved with 0.5% fetal bovine serum (FBS) in Dulbecco's modified eagle medium (DMEM) prior to treatment. TNFα treatments (50 ng/mL unless otherwise noted) were performed during the 24 hour prior to harvest, after pretreatment with IKKβ inhibitor compound VIII (EMD Biosciences, Philadelphia, Pa.) for 1 hour where indicated. […] Cells were treated with or without 10 nM of insulin for 15 minutes. RAW264.7 cells were serum starved with 0.5% FBS DMEM media and pre-treated with or without Cay-10576 (Cayman Chemical, Ann Arbor, Mich.). The cells were then treated with LPS (0.5 μg/ml) or poly I:C (50 μg/ml) for 1 hour. Cells were harvested for total RNA and analyzed by real-time PCR Cell lysates were resolved on SDS-PAGE and analyzed by immunoblot using the indicated antibodies.
In general terms: A western blot detects proteins with antibodies after separation by electrophoresis.

Entries after “also recorded” stand apart in the source; their conditions may differ.

For the compound `COc1cc2ncn(-c3cc(OCc4ccccc4S(C)(=O)=O)c(C#N)s3)c2cc1OC` [Cay-10576], the “LPS or poly I:C-stimulated phosphorylation of IRF3” value is “blocked” and the “phosphorylation of TBK1 on serine 172” value was “stimulated”. Also, for the setting “listed as cayman”, the “LPS or poly I:C-stimulated phosphorylation of IRF3” value is given as “reverses”, the “phosphorylation of TBK1 on serine 172” value is on record as “inducing” and the IKKβ phosphorylation entry is “increased; also recorded: inducing”.
